Reference: PMC6474336, “Cloning and characterization of a tyrosine decarboxylase involved in the biosynthesis of galanthamine in Lycoris aurea” (PeerJ, 2019)

What was measured:
[1] = test system: LaTYDC1; assay: HPLC of dopamine formed; format: biochemical, Lycoris aurea; conditions: pyridoxal-5-phosphate, 50 mM Tris-HCl pH 8.0, 37 °C; GST fusion
From the text: HPLC of dopamine formed on LaTYDC1

[2] = test system: LaTYDC1; assay: HPLC of tyramine formed; format: biochemical, Lycoris aurea; conditions: pyridoxal-5-phosphate, 50 mM Tris-HCl pH 8.0, 37 °C; GST fusion; Table 1 labels this row 'Tyramine' and prints error ± 0.12

Which Km [1] does the source give for N[C@@H](Cc1ccc(O)c(O)c1)C(=O)O [L-Dopa, 3,4-dihydroxy-L-phenylalanine] here?
Its Km is 966 ± 79 µM.

Which Km [2] does the source give for N[C@@H](Cc1ccc(O)cc1)C(=O)O [L-tyrosine] here?
The Km was 602 ± 38 µM.
